Test results: patent publication US20240139185A1, “COMPOUNDS THAT PARTICIPATE IN COOPERATIVE BINDING AND USES THEREOF” (Revolution Medicines, Inc., priority 2018, published 2024)

Legend:
[1] = target: cyclophilin A (CYPA) (Homo sapiens, UniProt P62937); assay: CYPA-compound binary complex formation by SPR; conditions: read-out: CYPA Binding Affinity
Protocol: In order to determine the affinity of compounds of the invention for cyclophilin A (CYPA), we employed surface plasmon resonance binding analysis using the following reagents, instruments and protocol as supplied by the instrument manufacturer.
Reagents and Instrument • 1. Instrument: Biacore S200 (GE Healthcare Life Sciences) • 2. Running buffer: 1×HBS-P+ (1×HBS supplemented with 0.05% Tween20), pH7.4, and 2% DMSO. • 3. Ligand: CypA-Avi • 4. Analyte: Serial dilution of WDB compounds from 50 μM to 0 μM, 2-fold dilution, 10 points (10 mM stock concentration). • 5. Sensor kit: Biotin CAPture Kit (BR28-9202-34, GE Healthcare Life Sciences) • 6. Regeneration buffer: 1 volume of 1 M NaOH and 3 volumes of 8 M guanidine hydrochloride (supplied with CAPture Kit, BR28-9202-34, GE Healthcare Life Sciences)
Experimental Procedure • 1. Capture of CAPreagent: 2 μl/min for 60 seconds. • 2. Immobilization of ligand CypA: Use Fc1 as the reference cell; immobilize CypA at 4 μg/ml using 5 μl/min flowrate on Fc2 (60s), Fc3 (80s) and Fc4 (80s), respectively. • 3. Binding of analytes: Inject WDB compound dilutions sequentially at 50 μl/min for association of 60 seconds. And then let it dissociates in buffer at 50 μl/min for 60 seconds. • 4. Regeneration: 2 injections of regeneration buffer at 30 μl/min for 60 seconds to regenerate the chip surface. • 5. Solvent correction: Run solvent correction at beginning and the end of the run. If run more than 6 compounds, add additional solvent correction every 6 compounds. • 6. Data fitting with built-in Biacore Evaluation Software: Steady-state fitting.

[2] = target: T1, BRAF-GTP-KRAS-G12C complex (Homo sapiens, UniProt P01116+P62937, G12C); assay: KRAS-BRAF complex disruption through competition with CYPA-compound by TR-FRET; conditions: biochemical BRAF-KRAS G12C-GTP disruption assay EC50, with CYPA
T1 construct: 50 nM of His6-KRas G12C-GTP (1-169); 500 nM of tagless CypA (1-165)
Protocol: In this example, TR-FRET was used to measure the compound-facilitated disruption of a KRAS-BRAF complex. A mixture of tagless Cyclophilin A, His6-KRAS G12C-GMP-PNP, and GST-BRAF RAS binding domain was added to a 384-well assay plate containing compounds of the invention and incubated for 3 hours. A mixture of Anti-His Eu-W1024 and anti-GST allophycocyanin was then added and the reaction was incubated for an additional 1.5 hours. TR-FRET signal was read on an EnVision microplate reader (Perkin Elmer, Ex 320 nm, Em 665/615 nm). Compounds that facilitate disruption of a KRAS_BRAF complex were identified as those eliciting a decrease in the TR-FRET ratio relative to DMSO control wells. To determine the presenter-dependence of the compound-mediated KRAS-BRAF complex disruption, Cyclophilin A was left out of the initial incubation (see Table 5). To determine G12C specificity of the compound-mediated KRAS-BRAF complex disruption, wild-type KRAS was used instead of G12C KRAS (see Table 5).
Reagents and Instrument • Tagless CYPA; 519 μM in PBS buffer, pH 7.4 • GST BRAF; 110 μM in PBS buffer, pH 7.4 • His6-KRASG12C-GMP-PNP; 50 μM in PBS buffer, pH 7.4 • His6-KRASWT-GMP-PNP; 40 μM in PBS buffer, pH 7.4 • Anti-His Eu-W1024 (LANCE® Eu-W1024; Perkin Elmer) • Anti-GST allophycocyanin (Anti-GST IgG conjugated to SureLight®-Allophycocyanin; Perkin Elmer; Product Number AD0059G) • Test compounds, 10 mM in 100% DMSO • EnVision (Perkin Elmer) • Combi MultiDrop liquid dispenser with 8-channel small volume cassette • 384-well ProxiPlate (black)
Experimental Protocol • 1. Use Mosquito to dispense 100 nL/well of compounds (varying concentration in […]) into 384-well black ProxiPlate to make assay-ready-plate (ARP). • 2. Make assay buffer containing 25 mM Hepes pH 7.3, 100 mM NaCl, 5 mM MgCl2, 0.05% BSA, and 0.002% Tween-20. • 3. Make PRE-MIX A: delivers final concentrations of 50 nM of His6-KRas G12C-GTP (1-169) and 500 nM of tagless CypA (1-165) in assay buffer. • a. For presenter dependence experiments, omit addition of tagless CypA • b. For G12C/wt specificity experiments, substitute His6-KRas WT-GTP (1-169) for His6-KRas G12C-GTP (1-169) • 4. Use MultiDrop Combi to dispense PRE-MIX A into ARP, 7 μl/well. Incubate 3 hr at room temperature. • 5. Make PRE-MIX B: delivers final concentrations of 10 nM of anti-His Eu-W1024 and 50 nM of anti-GST APC. • 6. Use MultiDrop Combi to dispense PRE-MIX B into ARP, 3 μl/well. Shake briefly on Combi and incubate 1.5 hr at room temperature. • 7. Read on EnVision (Ex: 320 nm; Em1: 615 nm; Em2: 665 nm). • 8. Data is processed using Dotmatics. Curves are fit using a 4-parameter non-linear fit to determine the EC50 value for formation of the ternary complex.

[3] = tested on: pERK in H358 cells; assay: pERK inhibition in H358 cells; assay type: cell-based, human; conditions: 4 hours treatment, read-out: Cellular pERK inhibition
Protocol: H358 cells (5500 cells) derived from a human lung cancer were plated in a 96 well plate in media (100 uL, RPMI with 10% FBS). After 24 hours, cells were treated for 4 hours with compound or DMSO. Cells were washed twice with room temperature TBS (200 uL) and fixed for 20 minutes with 4% paraformaldehyde diluted with TBS (150 uL). Cells were washed four times for five minutes with 0.1% TritonX/TBS (150 uL) to permeabilize the membrane. Cells were incubated with TBS blocking buffer (100 uL) at room temperature for 60 minutes. Primary antibody (Phospho-p44/42 MAPK (Erk1/2) (Thr202/Tyr204) (D13.14.4E) XP® Rabbit mAb #4370, Cell Signaling Technology; 1:200) was added, and the cells were incubated overnight at 4 C. The cells were washed four times for five minutes with 0.1% Tween 20/TBS (150 uL). Secondary antibody (IRDye® 800CW Goat-Anti-Rabbit IgG, Li-Cor Biosciences; 1:1000) and DRAQ5™ (Invitrogen; 1:2000) was added, and the cells were incubated for 1 hour at room temperature. The cells were washed four times for five minutes with 0.1% Tween 20/TBS (150 uL) and scanned using the LICOR (700 and 800 nm).

CC(C)C(C(=O)NC1Cc2cc(O)cc(c2)-c2ccc3c(C(C)(C)C#N)cn(c3c2)CC(CF)COC(=O)C2CCCN(N2)C1=O)N(C)C(=O)C1CN(C(=O)CCl)C1 (mixture of isomers) [Compound 34]
Kd [1]: 5 to 15 µM | EC50 [2]: ≤ 0.5 µM | IC50 [3]: 1 to 10 µM

CC1COC(=O)C2CCCN(N2)C(=O)C(NC(=O)C(C(C)C)N(C)C(=O)C2CN(C(=O)CCl)C2)Cc2cc(O)cc(c2)-c2ccc3c4c(n(c3c2)C1)COCC4(C)C#N (mixture of isomers) [Compound 62]
Kd [1]: 5 to 15 µM | EC50 [2]: ≤ 0.5 µM | IC50 [3]: ≤ 1 µM

CC1COC(=O)C2CCCN(N2)C(=O)C(NC(=O)C(C(C)C)N(C)C(=O)C2CN(C(=O)CCl)C2)Cc2cc(O)cc(c2)-c2ccc3c4c(n(c3c2)C1)CCC4C#N (mixture of isomers) [Compound 74]
Kd [1]: ≤ 5 µM | EC50 [2]: ≤ 0.5 µM | IC50 [3]: 1 to 10 µM

CC1COC(=O)[C@@H]2CCCN(N2)C(=O)[C@@H](NC(=O)[C@H](C(C)C)N(C)C(=O)C2CN(C(=O)CCl)C2)Cc2cc(O)cc(c2)-c2ccc3c(c2)c(cn3CC2COC2)C1 (single isomer, unassigned) [Compound 227]
Kd [1]: 5 to 15 µM | IC50 [3]: > 10 µM

CC1COC(=O)[C@@H]2CCCN(N2)C(=O)[C@@H](NC(=O)[C@H](C(C)C)N(C)C(=O)C2CN(C(=O)CCl)C2)Cc2cc(O)cc(c2)-c2ccc3c(c2)c(cn3CC2COC2)C1 (single isomer, unassigned) [Compound 228]
Kd [1]: ≤ 5 µM | IC50 [3]: 1 to 10 µM

CC1COC(=O)C2CCCN(N2)C(=O)C(NC(=O)C(C(C)C)N(C)C(=O)C2CN(C(=O)CCl)C2)Cc2cc(O)cc(c2)-c2ccc3c(-c4ccccc4C#N)cn(c3c2)C1 [Compound 5, 1-(2-chloroacetyl)-N-((2S)-1-(((6^3S,4S,10S)-1^3-(2-cyanophenyl)-2^5-hydroxy-10-methyl-5,7-dioxo-6^1,6^2,6^3,6^4,6^5,6^6-hexahydro-1^1H-8-oxa-1(6,1)-indola-6(1,3)-pyridazina-2(1,3)-benzenacycloundecaphane-4-yl)amino)-3-methyl-1-oxobutan-2-yl)-N-methylazetidine-3-carboxamide]
Kd [1]: ≤ 5 µM | IC50 [3]: ≤ 1 µM

CC(C)[C@@H](C(=O)N[C@H]1Cc2cc(O)cc(c2)-c2ccc3c(-c4cccnc4)cn(c3c2)C[C@H](C)COC(=O)[C@@H]2CCCN(N2)C1=O)N(C)C(=O)C1CN(C(=O)CCl)C1 [Compound 51]
EC50 [2]: ≤ 0.5 µM | IC50 [3]: 1 to 10 µM

CC(C)[C@@H](C(=O)N[C@H]1Cc2cc(O)cc(c2)-c2ccc3c(Cc4cccnc4)cn(c3c2)C[C@H](C)COC(=O)[C@@H]2CCCN(N2)C1=O)N(C)C(=O)C1CN(C(=O)CCl)C1 [Compound 70]
EC50 [2]: ≤ 0.5 µM | IC50 [3]: > 10 µM

C=CC(=O)N1CCN([C@H](C(=O)N[C@H]2Cc3cc(O)cc(c3)-c3ccc4c(C5CCOCC5)cn(c4c3)CCCOC(=O)[C@@H]3CCCN(N3)C2=O)C(C)C)C1=O [Compound 229, (2S)-2-(3-acryloyl-2-oxoimidazolidin-1-yl)-N-((6^3S,4S)-2^5-hydroxy-5,7-dioxo-1^3-(tetrahydro-2H-pyran-4-yl)-6^1,6^2,6^3,6^4,6^5,6^6-hexahydro-1^1H-8-oxa-1(6,1)-indola-6(1,3)-pyridazina-2(1,3)-benzenacycloundecaphane-4-yl)-3-methylbutanamide]
Kd [1]: ≤ 5 µM | IC50 [3]: > 10 µM

CC(C)[C@@H](C(=O)N[C@H]1Cc2cc(N)cc(c2)-c2ccc3c(C#N)cn(c3c2)CC(C)(C)COC(=O)[C@@H]2CCCN(N2)C1=O)N(C)C(=O)C1CN(C(=O)CCl)C1 [Compound 230, N-((2S)-1-(((6^3S,4S)-2^5-amino-1^3-cyano-10,10-dimethyl-5,7-dioxo-6^1,6^2,6^3,6^4,6^5,6^6-hexahydro-1^1H-8-oxa-1(6,1)-indola-6(1,3)-pyridazina-2(1,3)-benzenacycloundecaphane-4-yl)amino)-3-methyl-1-oxobutan-2-yl)-1-(2-chloroacetyl)-N-methylazetidine-3-carboxamide]
EC50 [2]: 0.5 to 5 µM | IC50 [3]: > 10 µM

C=CC(=O)N1CC(C(=O)N(C)[C@H](C(=O)N[C@H]2Cc3cc(O)cc(c3)-c3ccc4c(C5CCN(C)CC5)nn(c4c3)CC(C)(C)COC(=O)[C@@H]3CCCN(N3)C2=O)C(C)C)C1 [Compound 232, 1-acryloyl-N-((2S)-1-(((6^3S,4S)-2^5-hydroxy-10,10-dimethyl-1^3-(1-methylpiperidin-4-yl)-5,7-dioxo-6^1,6^2,6^3,6^4,6^5,6^6-hexahydro-1^1H-8-oxa-1(6,1)-indazola-6(1,3)-pyridazina-2(1,3)-benzenacycloundecaphane-4-yl)amino)-3-methyl-1-oxobutan-2-yl)-N-methylazetidine-3-carboxamide]
EC50 [2]: 0.5 to 5 µM | IC50 [3]: > 10 µM

C#Cc1nn2c3cc(ccc13)-c1cc(O)cc(c1)C[C@H](NC(=O)[C@H](C(C)C)N(C)C(=O)C1CN(C(=O)CCl)C1)C(=O)N1CCC[C@H](N1)C(=O)OCC(C)(C)C2 [Compound 233, 1-(2-chloroacetyl)-N-((2S)-1-(((6^3S,4S)-1^3-ethynyl-2^5-hydroxy-10,10-dimethyl-5,7-dioxo-6^1,6^2,6^3,6^4,6^5,6^6-hexahydro-1^1H-8-oxa-1(6,1)-indazola-6(1,3)-pyridazina-2(1,3)-benzenacycloundecaphane-4-yl)amino)-3-methyl-1-oxobutan-2-yl)-N-methylazetidine-3-carboxamide]
EC50 [2]: ≤ 0.5 µM | IC50 [3]: > 10 µM

C=CC(=O)N1CCC(C(=O)N(C)C(C(=O)NC2Cc3cc(O)cc(c3)-c3ccc4c(c3)c(cn4C(C)(C)C#N)CC(C)(C)COC(=O)C3CCCN(N3)C2=O)C2CCCCC2)C1 (centres unmarked) [Compound 396]
EC50 [2]: > 5 µM | IC50 [3]: 1 to 10 µM
